The record followed here is PubChem BioAssay AID2060904 (Molecular Pharmacology Branch, DTP, NCI, 2025).
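Also: spheroids exposed to compound for seven days before viability readout.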

For one assay, the system named is 349418-098-R-PDC complex spheroid viability. The assay is described as follows: Anticancer human tumor 349418-098-R-PDC patient-derived lung adenocarcinoma cell line growth inhibition [RAS]. Conditions: second compound 0.1 µM; first compound 1 µM; hits give low values. Summed up: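 Agents were tested in combination matrices in half-log decrements from a top concentration at or near clinical Cmax (10 microM if undetermined). Targets were multi-cell spheroids of tumour lines plus HUVEC and MSC stromal cells.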
Regarding `CCC(CC)c1cc(NC2CCC(N)C2)n2nccc2n1` (stereo unspecified) + C#Cc1c(F)ccc2cc(O)cc(-c3ncc4c(N5CC6CCC(C5)N6)nc(OCC56CCCN5CC(F)C6)nc4c3F)c12, the viability, T/C is 42.6%.

Consider `CCN1CCN(Cc2ccc(Nc3ncc(F)c(-c4cc(F)c5nc(C)n(C(C)C)c5c4)n3)nc2)CC1` + C#Cc1c(F)ccc2cc(O)cc(-c3ncc4c(N5CC6CCC(C5)N6)nc(OCC56CCCN5CC(F)C6)nc4c3F)c12, for which the viability, T/C was 14.4%.

With `C[C@@H](NC(=O)c1ncnc(N)c1Cl)c1ncc(C(=O)Nc2cc(C(F)(F)F)c(Cl)cn2)s1` + C#Cc1c(F)ccc2cc(O)cc(-c3ncc4c(N5CC6CCC(C5)N6)nc(OCC56CCCN5CC(F)C6)nc4c3F)c12, the viability, T/C was 73.2%.

Still in this assay, the particulars now being: second compound 0.1 µM; first compound 3.16 µM; hits give low values.
Consider `CC1(O)CCCC1n1c(=O)c(C(F)F)cc2cnc(NC3CCN(S(C)(=O)=O)CC3)nc21` (stereo unspecified) + C#Cc1c(F)ccc2cc(O)cc(-c3ncc4c(N5CC6CCC(C5)N6)nc(OCC56CCCN5CC(F)C6)nc4c3F)c12, for which the viability, T/C was 18.7%.

For the molecule `CCC(CC)c1cc(NC2CCC(N)C2)n2nccc2n1` (stereo unspecified) + C#Cc1c(F)ccc2cc(O)cc(-c3ncc4c(N5CC6CCC(C5)N6)nc(OCC56CCCN5CC(F)C6)nc4c3F)c12, the viability, T/C was 2.89%.

As to `C[C@@H](NC(=O)c1ncnc(N)c1Cl)c1ncc(C(=O)Nc2cc(C(F)(F)F)c(Cl)cn2)s1` + C#Cc1c(F)ccc2cc(O)cc(-c3ncc4c(N5CC6CCC(C5)N6)nc(OCC56CCCN5CC(F)C6)nc4c3F)c12, the viability, T/C is 47.4%.

Staying with this assay, now noted: second compound 0.1 µM; first compound 10 µM; hits give low values.
As to `CC1(O)CCCC1n1c(=O)c(C(F)F)cc2cnc(NC3CCN(S(C)(=O)=O)CC3)nc21` (stereo unspecified) + C#Cc1c(F)ccc2cc(O)cc(-c3ncc4c(N5CC6CCC(C5)N6)nc(OCC56CCCN5CC(F)C6)nc4c3F)c12, the viability, T/C is 3.67%.

For the molecule `CCC(CC)c1cc(NC2CCC(N)C2)n2nccc2n1` (stereo unspecified) + C#Cc1c(F)ccc2cc(O)cc(-c3ncc4c(N5CC6CCC(C5)N6)nc(OCC56CCCN5CC(F)C6)nc4c3F)c12, the viability, T/C is 2.86%.

As to `C[C@@H](NC(=O)c1ncnc(N)c1Cl)c1ncc(C(=O)Nc2cc(C(F)(F)F)c(Cl)cn2)s1` + C#Cc1c(F)ccc2cc(O)cc(-c3ncc4c(N5CC6CCC(C5)N6)nc(OCC56CCCN5CC(F)C6)nc4c3F)c12, the viability, T/C was 36.6%.

Staying with this assay, now noted: second compound 0.316 µM; first compound 0.00316 µM; hits give low values.
On to `CCN1CCN(Cc2ccc(Nc3ncc(F)c(-c4cc(F)c5nc(C)n(C(C)C)c5c4)n3)nc2)CC1` + C#Cc1c(F)ccc2cc(O)cc(-c3ncc4c(N5CC6CCC(C5)N6)nc(OCC56CCCN5CC(F)C6)nc4c3F)c12, for which the viability, T/C was 78.2%.

Still in this assay, the particulars now being: second compound 0.316 µM; first compound 0.01 µM; hits give low values.
With `CCN1CCN(Cc2ccc(Nc3ncc(F)c(-c4cc(F)c5nc(C)n(C(C)C)c5c4)n3)nc2)CC1` + C#Cc1c(F)ccc2cc(O)cc(-c3ncc4c(N5CC6CCC(C5)N6)nc(OCC56CCCN5CC(F)C6)nc4c3F)c12, the viability, T/C was 59.9%.

Staying with this assay, now noted: second compound 0.316 µM; first compound 0.0316 µM; hits give low values.
Regarding `CC1(O)CCCC1n1c(=O)c(C(F)F)cc2cnc(NC3CCN(S(C)(=O)=O)CC3)nc21` (stereo unspecified) + C#Cc1c(F)ccc2cc(O)cc(-c3ncc4c(N5CC6CCC(C5)N6)nc(OCC56CCCN5CC(F)C6)nc4c3F)c12, the viability, T/C is 84.5%.

`CCC(CC)c1cc(NC2CCC(N)C2)n2nccc2n1` (stereo unspecified) + C#Cc1c(F)ccc2cc(O)cc(-c3ncc4c(N5CC6CCC(C5)N6)nc(OCC56CCCN5CC(F)C6)nc4c3F)c12: the viability, T/C is 91.3%.

Consider `CCN1CCN(Cc2ccc(Nc3ncc(F)c(-c4cc(F)c5nc(C)n(C(C)C)c5c4)n3)nc2)CC1` + C#Cc1c(F)ccc2cc(O)cc(-c3ncc4c(N5CC6CCC(C5)N6)nc(OCC56CCCN5CC(F)C6)nc4c3F)c12, for which the viability, T/C was 40.8%.

`C[C@@H](NC(=O)c1ncnc(N)c1Cl)c1ncc(C(=O)Nc2cc(C(F)(F)F)c(Cl)cn2)s1` + C#Cc1c(F)ccc2cc(O)cc(-c3ncc4c(N5CC6CCC(C5)N6)nc(OCC56CCCN5CC(F)C6)nc4c3F)c12: the viability, T/C was 110%.

The same assay, now with this note: second compound 0.316 µM; first compound 0.1 µM; hits give low values.
`CC1(O)CCCC1n1c(=O)c(C(F)F)cc2cnc(NC3CCN(S(C)(=O)=O)CC3)nc21` (stereo unspecified) + C#Cc1c(F)ccc2cc(O)cc(-c3ncc4c(N5CC6CCC(C5)N6)nc(OCC56CCCN5CC(F)C6)nc4c3F)c12: the viability, T/C is 41.7%.

As for `CCC(CC)c1cc(NC2CCC(N)C2)n2nccc2n1` (stereo unspecified) + C#Cc1c(F)ccc2cc(O)cc(-c3ncc4c(N5CC6CCC(C5)N6)nc(OCC56CCCN5CC(F)C6)nc4c3F)c12, the viability, T/C was 112%.

`CCN1CCN(Cc2ccc(Nc3ncc(F)c(-c4cc(F)c5nc(C)n(C(C)C)c5c4)n3)nc2)CC1` + C#Cc1c(F)ccc2cc(O)cc(-c3ncc4c(N5CC6CCC(C5)N6)nc(OCC56CCCN5CC(F)C6)nc4c3F)c12: the viability, T/C was 28.9%.

On to `C[C@@H](NC(=O)c1ncnc(N)c1Cl)c1ncc(C(=O)Nc2cc(C(F)(F)F)c(Cl)cn2)s1` + C#Cc1c(F)ccc2cc(O)cc(-c3ncc4c(N5CC6CCC(C5)N6)nc(OCC56CCCN5CC(F)C6)nc4c3F)c12, for which the viability, T/C was 119%.

The assay is the same for the next values; noted with them: second compound 0.316 µM; first compound 0.316 µM; hits give low values.
In the case of `CC1(O)CCCC1n1c(=O)c(C(F)F)cc2cnc(NC3CCN(S(C)(=O)=O)CC3)nc21` (stereo unspecified) + C#Cc1c(F)ccc2cc(O)cc(-c3ncc4c(N5CC6CCC(C5)N6)nc(OCC56CCCN5CC(F)C6)nc4c3F)c12, the viability, T/C is 25.2%.

Take `CCC(CC)c1cc(NC2CCC(N)C2)n2nccc2n1` (stereo unspecified) + C#Cc1c(F)ccc2cc(O)cc(-c3ncc4c(N5CC6CCC(C5)N6)nc(OCC56CCCN5CC(F)C6)nc4c3F)c12: the viability, T/C was 106%.

What is called viability, T/C is the ratio of treated to control.
